The values below are quoted from earlier work in patent US12686008B2, “Microfluidic device having specifically designed detection chambers” (Bifrost Biosystems Inc., priority 2020, dated 2026).

Broadly, the MIC is the least concentration at which growth counts as inhibited.

Where no end group is shown, it is not given here.

For this series the following is noted: literature values, refs [18, 19]; test organism not given.

In the case of LL-37, the MIC is 1.5 µmol/L. Take VDKPPYLPRPRPPRRIYNR-NH2 [Oncocin]: the MIC is 0.42 µmol/L.
